Laboratory results: patent US11834663B2, “Fibrotic treatment” (Monash University, priority 2015, dated 2023)

What was measured:
aged WT mice = assay: Systolic blood pressure, body weight and cardiac hypertrophy in aged WT mice after chronic IRAP inhibition; format: in vivo, mouse
Description: (§1) There are 8 different sets of in vivo experiments in this study: • A) Phenotypic characterisation of the heart and blood vessels in global IRAP knockout mice and their WT controls treated for 4 weeks with Angiotensin (Ang) II (800 ng/kg/min; s.c.) where mouse hearts and blood vessels were compared to tissue obtained from young WT and IRAP^−/− mice treated with saline. • B) Prevention of Ang II-induced changes in the cardiovascular system following IRAP inhibitor treatment. In the prevention model, WT mice were treated with Ang II (800 ng/kg/min; s.c.)±the IRAP inhibitor (HFI-419; 500 ng/kg/min for 28 days) or HFI-vehicle (1 DMSO:3 HBC). • C) Phenotypic characterisation of the aged heart, kidney and blood vessels in the global IRAP knockout mice where aged WT and IRAP^−/− mouse hearts, kidneys and blood vessels were compared to tissue obtained from young WT and IRAP^−/− mice. • D) Reversal of the age-induced changes in the cardiovascular system following IRAP inhibitor treatment. In the reversal model, aged WT mice were treated with either saline, IRAP inhibitor (HFI-419 at 500 ng/kg/min; compound 1 at 500 ng/kg/min; compound 2 at 50 ng/kg/min) or HFI-vehicle (1 DMSO: 3 HBC) for 4 weeks. • E) Prevention of ischemic-reperfusion injury in isolated hearts taken from aged global IRAP knockout mice and aged IRAP inhibitor (HFI-419 at 500 ng/kg/min; s.c.) treated WT mice compared to age-matched vehicle-treated (1 DMSO:3 HBC; s.c.) WT controls. • F) Phenotypic characterization of cardiac function using echocardiography in the aged global IRAP knockout mice compared to aged and young WT mice. • G) Phenotypic characterization of liver steatosis in IRAP knockout mice in a high fat diet (HFD) model. • H) Reversal of the salt-induced fibrosis in the liver following IRAP inhibitor treatment.
All mice which underwent surgery were anaesthetized with Isoflurane (Isorrane) (5% induction and 2.5% maintenance) and an incision made in the midscapular region through which osmotic minipumps (Alzet model 2004, Alza Corp) were inserted for subcutaneous drug administration. The incision area was sutured with 6/0 DY silk (Dynek Pty Ltd) and antibiotic powder applied (Cicatrin, Pfizer) followed by intramuscular injection of the analgesic Cartrophen (0.1 ml of a 1.5 mg/ml stock solution; Biopharm Australia). Systolic blood pressure (SBP) was measured fortnightly using non-invasive tail-cuff plethysmography apparatus (MC4000 Blood Pressure Analysis System, Hatteras Instrument Inc) before drug treatment (week 0), at week 2 of treatment and end of treatment (week 4). At the end of drug treatment, body weight of mice was recorded. Mice were anaesthetized using Isoflurane inhalation and killed by cervical dislocation. Organs (heart, aorta, kidneys, brain, blood and tibia) were collected, with heart and aorta being dissected appropriately as described below. All organs were then snap frozen in liquid nitrogen, and stored at −80° C. if they were not used for vascular reactivity studies conducted on the day mice were killed.
Ventricular weight (VW) was compared to the body weight (BW) as a ratio of VW:BW (mg/g), as well as comparison of VW to tibial length (TL) in as a ratio of VW:TL (mg/mm) respectively. […] The average of 100 cardiomyocytes per heart section was performed under 60× magnification and analyzed using Image J.

[1] = test system: thoracic aortic sections from Ang II-infused WT mice; assay: Angiotensin II infusion prevention model: aortic fibrosis and inflammation markers (picrosirius red, immunofluorescence); format: in vivo, mouse
Description: as §1
To measure collagen deposition, frozen sections of heart, kidney or aorta (all 5 μm thickness) were air dried for 10 minutes and were brought through 3 times xylene (2 minutes each), and 3 times absolute alcohol washes before being rinsed in tap H2O for 30 seconds. Staining with an optimal concentration of picrosirius red (in this instance 0.05% picrosirius red diluted in saturated picric acid) was performed and left for an hour. Sections were then rinsed in water and differentiated in 0.01 M HCl for 2 minutes, followed by dehydration via 3 times absolute alcohol washes. Then, slides were brought through 3 times xylene washes before being cover slipped according to standard histological techniques using DPX as the mounting medium. Images were taken under ×20 magnification, using bright field (Olympus, BX51) and circularized polarized light microscopy (DM IRB, Leica) while percentage of positive interstitial collagen staining per total field of view was quantified using ImageJ 1.46 software (Java, NIH), and averaged out from a total of eight views as the final percentage collagen content in a particular animal.
Immunostaining was performed on either 5 μm thick transverse frozen heart sections or 5 μm thick frozen thoracic aortic. These sections were air dried and fixed in ice-cold acetone for approximately 15 minutes before washing with 0.01M PBS buffer (3×10 minutes). Sections were then incubated with 10% goat serum in 0.01M PBS for 30 minutes to reduce non-specific binding. If the primary antibody is raised in goat, this pre-blocked medium is substituted with 5% BSA in PBS and Triton-X. Next, blocking buffers were removed and the primary antibody to respective markers were applied overnight at room temperature based on the following dilution and origin of the antibodies: IRAP (1:500, in-house), α-SMA (1:500, Abcam), Vimentin (1:500, Santa Cruz), P-IκBα (1:200, Cell Signalling), F4/80 macrophage (1:100, Serotec), MCP-1 (1:100, Santa Cruz), VWF (1:500, abcam). […]

[2] = Ang II + HFI-419, 4 weeks, FIG. 4
[3] = Ang II + HFI-419, 4 weeks, immunofluorescence, FIG. 3

CCOC(=O)C1=C(NC(C)=O)Oc2cc(O)ccc2C1c1cccnc1 (stereo not drawn) [HFI-419]
systolic blood pressure, SBP (aged WT mice; chronic (4 week) HFI-419, FIG. 16a): no significant effect
body weight (aged WT mice; chronic (4 week) HFI-419, FIG. 16b): no significant effect
ventricular weight to body weight ratio, VW:BW (aged WT mice; chronic (4 week) HFI-419, FIG. 16c): no significant effect
cardiomyocyte cross-sectional area (H&E) (aged WT mice; chronic (4 week) HFI-419, FIG. 16e): no effect
ventricular weight to tibial length ratio, VW:TL (aged WT mice; chronic (4 week) HFI-419, FIG. 16d): no significant effect
Ang II-induced vascular fibrosis (aortic collagen, picrosirius red) ([1]; Ang II 800 ng/kg/min + HFI-419 500 ng/kg/min, 4 weeks, FIG. 3): prevented
ICAM-1 expression in aorta [1, 2]: reductions
MCP-1 expression in aorta [1, 2]: reductions
P-IκBα (marker for NFκB activation) expression in aorta [1, 2]: reductions
VCAM-1 expression in aorta [1, 2]: reductions
TGF-β1 expression in aorta [1, 3]: decreased
α-SMA expression in aorta [1, 3]: decreased
